Source: article PMC4503722, “Novel Phenotypic Outcomes Identified for a Public Collection of Approved Drugs from a Publicly Accessible Panel of Assays” (PLoS ONE, 2015)
Where two headings read alike, the source gives them in different places.

Key:
[1] = biological target: T1, hGSK3b (Homo sapiens, UniProt P49841); test: Cerep LANCE kinase assay hGSK3b (S1 assay 34); format: biochemical
T1 construct: purchased Cerep (LANCE kinase assay platform, contract assay)

[2] = biological target: T2, hp70S6K1 (RPS6KB1) (Homo sapiens, UniProt P23443); test: Cerep LANCE kinase assay hp70S6K1 (S1 assay 31); format: biochemical
T2 construct: purchased Cerep (LANCE kinase assay platform, contract assay)
T2 sequence (P23443 whole entry): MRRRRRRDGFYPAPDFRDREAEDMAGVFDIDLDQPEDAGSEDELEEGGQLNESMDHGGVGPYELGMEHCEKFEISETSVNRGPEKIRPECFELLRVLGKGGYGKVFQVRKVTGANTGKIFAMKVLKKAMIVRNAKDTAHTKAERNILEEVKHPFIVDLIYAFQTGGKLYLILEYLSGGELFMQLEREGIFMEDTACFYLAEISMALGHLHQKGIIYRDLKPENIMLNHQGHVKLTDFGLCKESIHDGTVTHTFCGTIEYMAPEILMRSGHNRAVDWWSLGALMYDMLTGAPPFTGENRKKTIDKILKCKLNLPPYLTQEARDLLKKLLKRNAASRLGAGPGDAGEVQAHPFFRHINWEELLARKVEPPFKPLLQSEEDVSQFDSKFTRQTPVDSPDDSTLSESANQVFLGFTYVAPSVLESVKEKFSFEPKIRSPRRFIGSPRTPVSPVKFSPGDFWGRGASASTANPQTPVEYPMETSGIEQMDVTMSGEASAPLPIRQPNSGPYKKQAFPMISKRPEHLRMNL

[3] = tested on: alkaline phosphatase (ALP) activity in C2C12 cells; format: cell-based; conditions: concentration response
[4] = tested on: SW480; test: cells; format: cell-based; conditions: basal
[5] = tested on: nuclear β-catenin in C2C12 cells; test: cells; format: cell-based; conditions: concentration response
[6] = tested on: endothelial tube formation in co-cultures of ECFCs and ADSCs treated with VEGF; test: cells; format: cell-based, human
[7] = tested on: NCI-H716 cells; test: cells; format: cell-based, Human
[8] = tested on: RKO; test: cells; format: cell-based; conditions: basal
[9] = tested on: HCT116; test: cells; format: cell-based; conditions: basal
[10] = biological target: T3, hKDR (Homo sapiens, UniProt P35968); test: Cerep LANCE kinase assay hKDR (S1 assay 32); format: biochemical
T3 construct: purchased Cerep (LANCE kinase assay platform, contract assay)
T3 sequence (P35968 20-1356): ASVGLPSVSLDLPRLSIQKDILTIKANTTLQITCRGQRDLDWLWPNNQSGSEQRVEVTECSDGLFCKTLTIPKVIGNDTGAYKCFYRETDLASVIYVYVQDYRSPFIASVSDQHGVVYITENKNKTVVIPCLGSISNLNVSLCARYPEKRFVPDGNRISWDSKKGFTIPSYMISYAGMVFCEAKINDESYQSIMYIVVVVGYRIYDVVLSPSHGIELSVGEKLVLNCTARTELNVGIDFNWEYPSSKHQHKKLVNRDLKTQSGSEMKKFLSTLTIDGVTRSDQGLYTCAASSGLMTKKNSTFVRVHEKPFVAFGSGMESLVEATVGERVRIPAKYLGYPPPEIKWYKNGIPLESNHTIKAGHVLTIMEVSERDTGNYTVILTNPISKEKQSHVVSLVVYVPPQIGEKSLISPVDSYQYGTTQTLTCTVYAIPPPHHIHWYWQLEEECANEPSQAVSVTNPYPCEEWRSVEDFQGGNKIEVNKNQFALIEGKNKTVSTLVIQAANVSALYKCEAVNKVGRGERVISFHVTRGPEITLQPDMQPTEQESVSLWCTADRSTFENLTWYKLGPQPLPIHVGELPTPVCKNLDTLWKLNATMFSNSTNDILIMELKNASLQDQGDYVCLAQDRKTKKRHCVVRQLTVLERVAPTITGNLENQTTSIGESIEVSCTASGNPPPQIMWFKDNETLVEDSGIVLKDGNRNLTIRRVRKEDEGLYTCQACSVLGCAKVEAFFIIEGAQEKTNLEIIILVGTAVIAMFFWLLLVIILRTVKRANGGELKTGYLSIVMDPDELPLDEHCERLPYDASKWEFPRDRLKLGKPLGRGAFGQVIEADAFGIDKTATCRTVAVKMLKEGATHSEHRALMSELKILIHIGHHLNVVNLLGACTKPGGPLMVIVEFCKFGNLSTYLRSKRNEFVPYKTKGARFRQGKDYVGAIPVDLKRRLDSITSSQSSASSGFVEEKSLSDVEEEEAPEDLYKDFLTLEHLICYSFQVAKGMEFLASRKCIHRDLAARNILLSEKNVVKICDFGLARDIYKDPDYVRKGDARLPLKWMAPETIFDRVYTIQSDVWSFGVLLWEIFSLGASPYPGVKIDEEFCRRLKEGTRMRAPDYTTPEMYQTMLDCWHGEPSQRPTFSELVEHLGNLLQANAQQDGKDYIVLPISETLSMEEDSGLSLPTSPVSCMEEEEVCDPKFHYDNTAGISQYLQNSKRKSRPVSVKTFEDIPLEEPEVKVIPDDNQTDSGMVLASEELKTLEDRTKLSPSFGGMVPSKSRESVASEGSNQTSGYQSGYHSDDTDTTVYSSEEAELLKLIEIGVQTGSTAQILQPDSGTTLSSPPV

[11] = tested on: HeLa cells; test: cells; format: cell-based
[12] = tested on: STC-1 cell line; format: cell-based, mouse
[13] = biological target: T4, hJAK2 (Homo sapiens, UniProt O60674); test: Cerep LANCE kinase assay hJAK2 (S1 assay 33); format: biochemical
T4 construct: purchased Cerep (LANCE kinase assay platform, contract assay)
T4 sequence (O60674 whole entry): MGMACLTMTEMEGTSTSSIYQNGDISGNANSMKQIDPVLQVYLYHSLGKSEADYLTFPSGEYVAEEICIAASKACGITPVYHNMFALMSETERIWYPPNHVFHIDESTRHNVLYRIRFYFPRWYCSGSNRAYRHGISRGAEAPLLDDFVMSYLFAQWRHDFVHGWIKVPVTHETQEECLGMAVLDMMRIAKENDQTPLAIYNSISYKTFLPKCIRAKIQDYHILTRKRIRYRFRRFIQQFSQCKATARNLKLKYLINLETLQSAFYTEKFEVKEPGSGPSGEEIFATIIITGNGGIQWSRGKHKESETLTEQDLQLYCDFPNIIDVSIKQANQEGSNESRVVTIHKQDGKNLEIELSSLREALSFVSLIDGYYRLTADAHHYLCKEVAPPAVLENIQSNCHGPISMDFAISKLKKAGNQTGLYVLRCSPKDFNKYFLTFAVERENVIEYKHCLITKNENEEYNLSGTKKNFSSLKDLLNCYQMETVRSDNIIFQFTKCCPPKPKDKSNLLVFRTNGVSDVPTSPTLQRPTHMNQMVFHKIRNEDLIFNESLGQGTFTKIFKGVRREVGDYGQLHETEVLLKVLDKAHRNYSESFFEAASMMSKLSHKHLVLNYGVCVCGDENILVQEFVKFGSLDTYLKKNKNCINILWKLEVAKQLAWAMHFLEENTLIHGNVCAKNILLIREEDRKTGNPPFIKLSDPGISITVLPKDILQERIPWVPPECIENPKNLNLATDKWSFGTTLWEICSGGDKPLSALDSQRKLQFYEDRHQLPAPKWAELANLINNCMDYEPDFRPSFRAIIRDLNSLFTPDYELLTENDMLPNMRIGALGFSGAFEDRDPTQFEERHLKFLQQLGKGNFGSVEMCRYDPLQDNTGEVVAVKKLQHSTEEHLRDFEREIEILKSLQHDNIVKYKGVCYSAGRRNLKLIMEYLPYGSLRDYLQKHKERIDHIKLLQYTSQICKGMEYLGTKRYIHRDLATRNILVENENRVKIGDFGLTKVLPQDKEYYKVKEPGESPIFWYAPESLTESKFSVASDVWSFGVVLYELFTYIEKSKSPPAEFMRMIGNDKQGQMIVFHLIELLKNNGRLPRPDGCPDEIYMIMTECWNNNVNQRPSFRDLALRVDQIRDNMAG

[14] = tested on: SNU-C1; test: cells; format: cell-based; conditions: basal
[15] = tested on: ECFC/ADSC co-culture cell nuclei number
[16] = tested on: DLD-1; test: cells; format: cell-based; conditions: basal
[17] = tested on: INS-1E cells; test: cells; format: cell-based, rat
[18] = biological target: T5, hFLT3 (Homo sapiens, UniProt P36888); test: Cerep LANCE kinase assay hFLT3 (S1 assay 35); format: biochemical
T5 construct: purchased Cerep (LANCE kinase assay platform, contract assay)
T5 sequence (P36888 27-993): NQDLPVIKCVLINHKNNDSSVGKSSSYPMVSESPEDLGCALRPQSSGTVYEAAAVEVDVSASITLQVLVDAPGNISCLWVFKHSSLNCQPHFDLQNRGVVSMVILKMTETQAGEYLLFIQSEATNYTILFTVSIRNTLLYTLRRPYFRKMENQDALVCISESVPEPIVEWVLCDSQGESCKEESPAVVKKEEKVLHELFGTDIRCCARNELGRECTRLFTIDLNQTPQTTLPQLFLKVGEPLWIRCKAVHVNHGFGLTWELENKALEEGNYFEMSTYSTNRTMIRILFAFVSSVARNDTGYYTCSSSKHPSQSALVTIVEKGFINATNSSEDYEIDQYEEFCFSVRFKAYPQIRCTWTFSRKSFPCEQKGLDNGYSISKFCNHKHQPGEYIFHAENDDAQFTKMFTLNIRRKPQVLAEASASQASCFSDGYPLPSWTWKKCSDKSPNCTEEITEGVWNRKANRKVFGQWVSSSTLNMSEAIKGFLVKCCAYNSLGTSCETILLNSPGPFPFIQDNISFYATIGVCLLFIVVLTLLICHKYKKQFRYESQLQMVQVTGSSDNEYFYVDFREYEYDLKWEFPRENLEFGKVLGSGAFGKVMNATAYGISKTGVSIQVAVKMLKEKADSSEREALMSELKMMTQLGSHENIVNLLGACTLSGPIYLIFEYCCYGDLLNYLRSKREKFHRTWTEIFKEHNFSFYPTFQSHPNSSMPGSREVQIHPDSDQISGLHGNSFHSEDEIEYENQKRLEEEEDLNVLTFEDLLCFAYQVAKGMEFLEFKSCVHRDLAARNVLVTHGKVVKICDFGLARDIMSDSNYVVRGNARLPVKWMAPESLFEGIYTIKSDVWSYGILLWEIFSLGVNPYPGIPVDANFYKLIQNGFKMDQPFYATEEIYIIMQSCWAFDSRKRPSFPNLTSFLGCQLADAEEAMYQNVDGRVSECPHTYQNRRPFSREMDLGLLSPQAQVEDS

[19] = tested on: HT-29; test: cells; format: cell-based; conditions: basal
[20] = tested on: Colo320; test: cells; format: cell-based; conditions: basal
[21] = tested on: INS-1E cells; format: cell-based, rat;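 as to 5mMGluc INS1E SecretionMod IC50/EC50: secreted insulin quantified by homogeneous immunoassay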;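 as to IC50/EC50, 5mMGluc INS1E SecretionMod (assay number 8): secreted insulin quantified by homogeneous immunoassay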
[22] = tested on: HCT116 cells treated with a GSK3β inhibitor; test: cells; format: cell-based; conditions: assay number 26; GSK3b inhibitor pretreated

T1 sequence (P49841 whole entry): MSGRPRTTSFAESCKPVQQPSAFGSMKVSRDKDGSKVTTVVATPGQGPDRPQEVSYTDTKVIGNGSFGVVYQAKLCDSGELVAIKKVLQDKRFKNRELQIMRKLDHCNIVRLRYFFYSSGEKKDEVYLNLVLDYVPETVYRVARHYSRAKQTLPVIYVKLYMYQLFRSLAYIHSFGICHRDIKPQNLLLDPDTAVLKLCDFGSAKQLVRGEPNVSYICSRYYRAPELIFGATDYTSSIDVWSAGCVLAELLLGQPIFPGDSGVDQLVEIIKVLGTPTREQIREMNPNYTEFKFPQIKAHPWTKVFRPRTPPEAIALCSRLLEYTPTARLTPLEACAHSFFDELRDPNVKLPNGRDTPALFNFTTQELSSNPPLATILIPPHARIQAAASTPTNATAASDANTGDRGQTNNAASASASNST

Q: What does the source list for `NC(=NCCCCCCN=C(N)/N=C(\N)Nc1ccc(Cl)cc1)/N=C(\N)Nc1ccc(Cl)cc1` [NCGC00016246-09]?
A: IC50/EC50, hGSK3b LANCE (assay number 34) [1]: > 20 µM; IC50/EC50, hp70S6K1 LANCE (assay number 31) [2]: > 20 µM; IC50/EC50, WntCondMedia_Alk Phos C2C12 (assay number 6) [3]: > 20 µM; IC50/EC50, Basal_Viability ATP SW480 (assay number 24) [4]: 5.6664 µM; IC50/EC50, WntCondMedia_bCatenin C2C12 (assay number 5) [5]: > 20 µM; IC50/EC50, VEGF_ADSC\ECFC Angio CD31 TubeArea (assay number 2) [6]: 1.3455 µM; IC50/EC50, hNCI-H716 GLP1 Secretion (assay number 12) ([7]; concentration response): 26.2027 µM; IC50/EC50, Basal_Viability ATP RKO (assay number 29) [8]: 4.5801 µM; IC50/EC50, Basal_Viability ATP HCT116 (assay number 25) [9]: 4.3853 µM; IC50/EC50, hKDR LANCE (assay number 32) [10]: > 20 µM; IC50/EC50, Hela CellCycMod PI 2N (assay number 14) ([11]; 2N): > 10 µM; IC50/EC50, Hela CellCycMod PI 4N (assay number 16) ([11]; 4N): > 10 µM; IC50/EC50, Hela CellCycMod PI Cell Number (assay number 18) ([11]; Cell Number): 6.7072 µM; IC50/EC50, Hela CellCycMod PI MI (assay number 17) ([11]; MI): > 10 µM; IC50/EC50, mSTC-1 GLP1 Secretion (assay number 13) ([12]; concentration response): 10.3287 µM; IC50/EC50, hJAK2 LANCE (assay number 33) [13]: > 20 µM; IC50/EC50, Basal_Viability ATP SNU-C1 (assay number 30) [14]: 0.4386 µM; IC50/EC50, VEGF_ADSC\ECFC Angio Hoechst NucArea (assay number 3) [15]: > 10 µM; IC50/EC50, Basal_Viability ATP DLD-1 (assay number 23) [16]: 2.8031 µM; IC50/EC50, 5mMGluc_INS1E SecretionMod (assay number 8) ([17]; 5 mM glucose): 25.1792 µM; IC50/EC50, hFLT3 LANCE (assay number 35) [18]: > 20 µM; IC50/EC50, Basal_Viability ATP HT-29 (assay number 28) [19]: 3.7852 µM; IC50/EC50, Basal_Viability ATP Colo 320 (assay number 27) [20]: 5.1631 µM

Q: With `CCOc1cc(CC(=O)N[C@@H](CC(C)C)c2ccccc2N2CCCCC2)ccc1C(=O)O` [NCGC00016978-04] as the molecule, how does the “0.1mMGluc_INS1E SecretionMod Act IC50/EC50” value ([21]; assay number 9, 0.1 mM glucose) read?
A: The value was 0.1358 µM.

Q: And the “5mMGluc_INS1E SecretionMod IC50/EC50” value ([17]; assay number 8, 5 mM glucose)?
A: Its value is 0.02704 µM.

Q: For `CN(C)CCOC(c1ccc(Cl)cc1)c1ccccn1` (stereo not drawn) [NCGC00166141-06], which “0.1mMGluc_INS1E SecretionMod Act IC50/EC50” value ([21]; assay number 9, 0.1 mM glucose) is on record?
A: The value was > 33.33 µM.

Q: What about the “5mMGluc_INS1E SecretionMod IC50/EC50” value ([17]; assay number 8, 5 mM glucose) of the same molecule?
A: Its value is 21.3759 µM.

Q: With `Cc1ccc([N+](=O)[O-])[c]2c1[O][Hg]2` [NCGC00249897-01] as the molecule, how does the “hGSK3b LANCE IC50/EC50” value ([1]; assay number 34) read?
A: Its value is 8.37 µM.

Q: What about the “hp70S6K1 LANCE IC50/EC50” value ([2]; assay number 31) of the same molecule?
A: Its value is > 20 µM.

Q: And the “WntCondMedia_Alk Phos C2C12 IC50/EC50” value ([3]; assay number 6)?
A: Its value is 0.1552 µM.

Q: And the “Basal_Viability ATP SW480 IC50/EC50” value ([4]; assay number 24)?
A: Its value is 1.1294 µM.

Q: What about the “WntCondMedia_bCatenin C2C12 IC50/EC50” value ([5]; assay number 5) of the same molecule?
A: Its value is 1.5133 µM.

Q: And the “VEGF_ADSC\ECFC Angio CD31 TubeArea IC50/EC50” value [6]?
A: The value was 0.6678 µM.

Q: And the “hNCI-H716 GLP1 Secretion IC50/EC50” value ([7]; assay number 12)?
A: The value was 9.871 µM.

Q: And the “Basal_Viability ATP HCT116 IC50/EC50” value ([9]; assay number 25)?
A: The value was 2.8299 µM.

Q: What about the “hKDR LANCE IC50/EC50” value ([10]; assay number 32) of the same molecule?
A: The value was 16.8 µM.

Q: And the “Hela CellCycMod PI 2N IC50/EC50” value ([11]; assay number 14, 2N)?
A: The value was > 10 µM.

Q: And the “Hela CellCycMod PI 4N IC50/EC50” value ([11]; assay number 16, 4N)?
A: Its value is > 10 µM.

Q: And the “Hela CellCycMod PI MI IC50/EC50” value ([11]; assay number 17, MI)?
A: The value was 1.2179 µM.

Q: What about the “Hela CellCycMod PI Cell Number IC50/EC50” value ([11]; assay number 18, cell number) of the same molecule?
A: The value was 0.3851 µM.

Q: And the “mSTC-1 GLP1 Secretion IC50/EC50” value ([12]; assay number 13)?
A: Its value is 0.0972 µM.

Q: What about the “hJAK2 LANCE IC50/EC50” value ([13]; assay number 33) of the same molecule?
A: The value was > 20 µM.

Q: And the “Basal_Viability ATP SNU-C1 IC50/EC50” value ([14]; assay number 30)?
A: Its value is 0.2022 µM.

Q: And the “VEGF_ADSC\ECFC Angio Hoechst NucArea IC50/EC50” value [15]?
A: The value was 1.087 µM.

Q: And the “Basal_Viability ATP DLD-1 IC50/EC50” value ([16]; assay number 23)?
A: The value was 1.6221 µM.

Q: And the “5mMGluc_INS1E SecretionMod IC50/EC50” value ([17]; assay number 8, 5 mM glucose)?
A: The value was > 33.33 µM.

Q: And the “hFLT3 LANCE IC50/EC50” value ([18]; assay number 35)?
A: Its value is 10.38 µM.

Q: And the “GSK3b inh pretreated_Viability ATP HCT116 IC50/EC50” value [22]?
A: The value was > 2.2222 µM.

Q: What about the “Basal_Viability ATP HT-29 IC50/EC50” value ([19]; assay number 28) of the same molecule?
A: Its value is 1.4429 µM.

Q: And the “Basal_Viability ATP Colo 320 IC50/EC50” value ([20]; assay number 27)?
A: Its value is 0.935 µM.

Q: With `Cl.NCC1CCC(C(=O)Oc2ccc(CCC(=O)O)cc2)CC1` (stereo not drawn) [NCGC00164584-03] as the molecule, how does the “0.1mMGluc_INS1E SecretionMod Act IC50/EC50” value ([21]; assay number 9, 0.1 mM glucose) read?
A: Its value is > 33.33 µM.

Q: What about the “5mMGluc_INS1E SecretionMod IC50/EC50” value ([17]; assay number 8, 5 mM glucose) of the same molecule?
A: The value was > 33.33 µM.

Q: For `CCCCN1CCCCC1C(=O)Nc1c(C)cccc1C` (stereo not drawn) [NCGC00178579-04], which “0.1mMGluc_INS1E SecretionMod Act IC50/EC50” value ([21]; assay number 9, 0.1 mM glucose) is on record?
A: The value was > 33.33 µM.

Q: What about the “5mMGluc_INS1E SecretionMod IC50/EC50” value ([17]; assay number 8, 5 mM glucose) of the same molecule?
A: The value was 27.1706 µM.

Q: Which “0.1mMGluc_INS1E SecretionMod Act IC50/EC50” value ([21]; assay number 9, 0.1 mM glucose) does the source give for `CN(C)CC[C@@H](c1ccc(Br)cc1)c1ccccn1.O=C(O)/C=C\C(=O)O` [NCGC00015146-11] here?
A: The value was 6.368 µM.

Q: What about the “5mMGluc_INS1E SecretionMod IC50/EC50” value ([17]; assay number 8, 5 mM glucose) of the same molecule?
A: The value was 3.76 µM.

Q: What does the source list for `CN1CCc2cc(Cl)c(O)cc2[C@H]2c3ccccc3CC[C@@H]21` [NCGC00092362-02]?
A: 0.1mMGluc_INS1E SecretionMod Act IC50/EC50 ([21]; assay number 9, 0.1 mM glucose): > 33.33 µM; 5mMGluc_INS1E SecretionMod IC50/EC50 ([17]; assay number 8, 5 mM glucose): 15.3649 µM

Q: With `c1cc(CN2CCCCC2)cc(OCCCNc2nc3ccccc3s2)c1` [NCGC00015957-06] as the molecule, how does the “0.1mMGluc_INS1E SecretionMod Act IC50/EC50” value ([21]; assay number 9, 0.1 mM glucose) read?
A: Its value is > 33.33 µM.

Q: What about the “5mMGluc_INS1E SecretionMod IC50/EC50” value ([17]; assay number 8, 5 mM glucose) of the same molecule?
A: Its value is > 11.11 µM.

Q: `O=C(NN1CCCC1)NS(=O)(=O)c1ccc(Cl)cc1` [NCGC00182989-01] was tested. Which “0.1mMGluc_INS1E SecretionMod Act IC50/EC50” value [21] did it give?
A: Its value is > 33.33 µM.

Q: What about the “5mMGluc_INS1E SecretionMod IC50/EC50” value [17] of the same molecule?
A: Its value is 14.8718 µM.

Q: How did the “0.1mMGluc_INS1E SecretionMod Act IC50/EC50” value ([21]; assay number 9, 0.1 mM glucose) turn out when `Oc1ccc(CCNCCCCCCNCCc2ccccc2)cc1O` [NCGC00184998-02] was run?
A: The value was > 33.33 µM.

Q: What about the “5mMGluc_INS1E SecretionMod IC50/EC50” value ([17]; assay number 8, 5 mM glucose) of the same molecule?
A: Its value is > 33.33 µM.

Q: Which results are given for `Cl.Nc1c2c(nc3c1CCC3)CCCC2.O` [NCGC00263455-01]?
A: 0.1mMGluc_INS1E SecretionMod Act IC50/EC50 ([21]; assay number 9, 0.1 mM glucose): > 33.33 µM; 5mMGluc_INS1E SecretionMod IC50/EC50 ([17]; assay number 8, 5 mM glucose): 11.7012 µM
